From ChEMBL document CHEMBL5608175, “Lipid-conjugated nucleoside monophosphate and monophosphonate prodrugs: A versatile drug delivery paradigm” (Eur J Med Chem, 2024)

How the values were obtained:
[1] = target: Human immunodeficiency virus type 1 reverse transcriptase (Human immunodeficiency virus 1, UniProt Q72547); assay: Inhibition of HIV-1 reverse transcriptase
[2] = Metabolic stability in human liver microsomes assessed as half life; assay type: ADME, Microsome; conditions: for half-life: liver microsomes
[3] = Cytotoxicity against African green monkey Vero E6 cells; assay type: toxicity, cell-based, Vero C1008; conditions: chlorocebus sabaeus
[4] = tested on: SARS-CoV-2; assay: Antiviral activity against SARS-CoV-2 2019-nCoV/USA_WA1/2020 infected in human PSC-derived lung epithelial cell assessed as reduction in viral replication pre-treated with compound for 30 mins followed by viral infection and measured after 48 hrs; assay type: functional, organism-based; conditions: Severe acute respiratory syndrome coronavirus 2, 2019-nCoV/USA_WA1/2020, Epithelial cell
[5] = tested on: SARS-CoV-2; assay: Antiviral activity against SARS-CoV-2 2019-nCoV/USA_WA1/2020 infected in human Calu-3 cells assessed as reduction in viral replication pre-treated with compound for 30 mins followed by viral infection and measured after 48 hrs; assay type: functional, organism-based; conditions: Severe acute respiratory syndrome coronavirus 2, 2019-nCoV/USA_WA1/2020, Calu-3
[6] = tested on: SARS-CoV-2; assay: Antiviral activity against SARS-CoV-2 2019-nCoV/USA_WA1/2020 infected in African green monkey Vero E6 cells assessed as reduction in viral replication pre-treated with compound for 30 mins followed by viral infection and measured after 48 hrs; assay type: functional, organism-based; conditions: Severe acute respiratory syndrome coronavirus 2, 2019-nCoV/USA_WA1/2020, Vero C1008
[7] = tested on: SARS-CoV-2; assay: Antiviral activity against SARS-CoV-2 2019-nCoV/USA_WA1/2020 infected in human Caco-2 cells assessed as reduction in viral replication pre-treated with compound for 30 mins followed by viral infection and measured after 48 hrs; assay type: functional, organism-based; conditions: Severe acute respiratory syndrome coronavirus 2, 2019-nCoV/USA_WA1/2020, Caco-2
[8] = tested on: SARS-CoV-2; assay: Antiviral activity against SARS-CoV-2 2019-nCoV/USA_WA1/2020 infected in human Huh7.5 cells assessed as reduction in viral replication pre-treated with compound for 30 mins followed by viral infection and measured after 48 hrs; assay type: functional, organism-based; conditions: Severe acute respiratory syndrome coronavirus 2, 2019-nCoV/USA_WA1/2020, Huh7.5
[9] = tested on: SARS-CoV-2; assay: Antiviral activity against SARS CoV-2 USA-WA1/2020 clinical isolate infected in human Calu-3 cells assessed as reduction in viral infection; assay type: functional, organism-based; conditions: Severe acute respiratory syndrome coronavirus 2, USA-WA1/2020, Calu-3

**Q.** For `C[C@H](Cn1cnc2c(N)ncnc21)OCP(=O)(O)OCCOCCCCCCCCCCCCCC#CC(F)(F)F`, which IC50 [1] is on record?
**A.** The IC50 was 16 nM.

**Q.** What about the half-life [2] of the same molecule?
**A.** Its half-life is greater than 120 min.

**Q.** What about the CC50 [3] of the same molecule?
**A.** The CC50 was greater than 100000 nM.

**Q.** Which results are given for `CCCCCCCCCCCCCCCCSCCCOP(=O)(O)CO[C@H](C)Cn1cnc2c(N)ncnc21`?
**A.** IC50 [1]: 10 nM; t1/2 ([2]; microsomes): 42 min; CC50 [3]: 49800 nM

**Q.** For `CCCCCCCCOCCCCCOCCCCCOP(=O)(O)CO[C@H](C)Cn1cnc2c(N)ncnc21`, which IC50 [1] is on record?
**A.** The IC50 was 4000 nM.

**Q.** What about the half-life [2] of the same molecule?
**A.** The half-life was 12 min.

**Q.** What about the CC50 [3] of the same molecule?
**A.** Its CC50 is greater than 100000 nM.

**Q.** Which IC50 [1] does the source give for `C[C@H](Cn1cnc2c(N)ncnc21)OCP(=O)(O)O` [TENOFOVIR ANHYDROUS] here?
**A.** Its IC50 is 1600 nM.

**Q.** And the half-life [2]?
**A.** The half-life was greater than 120 min.

**Q.** What about the CC50 [3] of the same molecule?
**A.** The CC50 was 35400 nM.

**Q.** Which results are given for `CCCCCCCCCCCCCCCCCCOC[C@@H](COP(=O)(O)OC[C@H]1O[C@@](C#N)(c2ccc3c(N)ncnn23)[C@H](O)[C@@H]1O)OCc1ccccc1`?
**A.** EC50 [4]: 150 nM; EC50 [5]: 300 nM; EC50 [6]: 140 nM; EC50 [7]: 140 nM; EC50 [8]: 300 nM

**Q.** Which IC50 [1] does the source give for `CCCCCCCCCCCCCCCCCCOCCOP(=O)(O)CO[C@H](C)Cn1cnc2c(N)ncnc21` here?
**A.** The IC50 was 3 nM.

**Q.** What about the half-life [2] of the same molecule?
**A.** Its half-life is 105 min.

**Q.** And the CC50 [3]?
**A.** Its CC50 is 53800 nM.

**Q.** Which results are given for `CCCCCCCCCCCCCCCCCOCCOP(=O)(O)CO[C@H](C)Cn1cnc2c(N)ncnc21`?
**A.** IC50 [1]: 3 nM; half-life [2]: 35 min; CC50 [3]: 69600 nM

**Q.** Which EC50 [9] does the source give for `CCCCCCCCCCCCCCCCCCOC[C@@H](COP(=O)(O)OC[C@H]1O[C@@](C#N)(c2ccc3c(N)ncnn23)[C@H](O)[C@@H]1O)OCc1cccc(C#N)c1` here?
**A.** Its EC50 is 34 nM.

**Q.** Which results are given for `CCCCCCCCCCCCCCCCCCCCOP(=O)(O)CO[C@H](C)Cn1cnc2c(N)ncnc21`?
**A.** IC50 [1]: 127 nM; half-life [2]: 49 min; CC50 [3]: 13200 nM

**Q.** With `C[C@H](Cn1cnc2c(N)ncnc21)OCP(=O)(O)OCCOCCCCCCCCCCC#Cc1ccc(S(F)(F)(F)(F)F)cc1` as the molecule, how does the IC50 [1] read?
**A.** The IC50 was 10 nM.

**Q.** And the half-life [2]?
**A.** The half-life was greater than 120 min.

**Q.** What about the CC50 [3] of the same molecule?
**A.** The CC50 was greater than 100000 nM.

**Q.** For `C[C@H](Cn1cnc2c(N)ncnc21)OCP(=O)(O)OCCOCCCCCCCCCCCCCCC#CC(F)(F)F`, which IC50 [1] is on record?
**A.** Its IC50 is 10 nM.

**Q.** What about the half-life [2] of the same molecule?
**A.** The half-life was greater than 120 min.

**Q.** What about the CC50 [3] of the same molecule?
**A.** The CC50 was greater than 100000 nM.

**Q.** Which IC50 [1] does the source give for `C[C@H](Cn1cnc2c(N)ncnc21)OCP(=O)(O)OCCOCCCCCCCCCCCCCCCCC(F)(F)F` here?
**A.** The IC50 was 10 nM.

**Q.** What about the half-life [2] of the same molecule?
**A.** The half-life was greater than 120 min.

**Q.** And the CC50 [3]?
**A.** Its CC50 is 85100 nM.

**Q.** Which IC50 [1] does the source give for `CCCCCCCCCCCCCCCOCCCCOP(=O)(O)CO[C@H](C)Cn1cnc2c(N)ncnc21` here?
**A.** The IC50 was 30 nM.

**Q.** What about the half-life [2] of the same molecule?
**A.** Its half-life is 48 min.

**Q.** What about the CC50 [3] of the same molecule?
**A.** The CC50 was greater than 100000 nM.

**Q.** What does the source list for `C[C@H](Cn1cnc2c(N)ncnc21)OCP(=O)(O)OCCOCCCCCCCCCCCCc1ccc(S(F)(F)(F)(F)F)cc1`?
**A.** IC50 [1]: 20 nM; half-life [2]: > 120 min; CC50 [3]: > 100000 nM

**Q.** With `CCCCCCCCCCCCCCCCCCOC[C@@H](COP(=O)(O)OC[C@H]1O[C@@](C#N)(c2ccc3c(N)ncnn23)[C@H](O)[C@@H]1O)OCc1ccc(OC)c(F)c1` as the molecule, how does the EC50 [9] read?
**A.** Its EC50 is 70 nM.

**Q.** Which results are given for `CCCCCCCCCCCCCCOCCCCCOP(=O)(O)CO[C@H](C)Cn1cnc2c(N)ncnc21`?
**A.** IC50 [1]: 52 nM; half-life [2]: 31 min; CC50 [3]: > 100000 nM

**Q.** Which IC50 [1] does the source give for `CCCCOCCCCCOCCCCCOCCCOP(=O)(O)CO[C@H](C)Cn1cnc2c(N)ncnc21` here?
**A.** The IC50 was 32000 nM.

**Q.** And the CC50 [3]?
**A.** The CC50 was greater than 100000 nM.

**Q.** With `CCCCCCCCCCCCCCCCCCOC[C@@H](COP(=O)(O)OC[C@H]1O[C@@](C#N)(c2ccc3c(N)ncnn23)[C@H](O)[C@@H]1O)OCc1ccc(C#N)cc1` as the molecule, how does the EC50 [9] read?
**A.** The EC50 was 43 nM.

**Q.** With `C[C@H](Cn1cnc2c(N)ncnc21)OCP(=O)(O)OCCOCCCCCCCCCCCCCCCC(F)(F)F` as the molecule, how does the IC50 [1] read?
**A.** The IC50 was 8 nM.

**Q.** And the half-life [2]?
**A.** The half-life was greater than 120 min.

**Q.** What about the CC50 [3] of the same molecule?
**A.** Its CC50 is greater than 100000 nM.
